Data reported in patent US10821115B2, “Compounds that inhibit Mcl-1 protein” (priority 2017, dated 2020).
pIC50: −log10 of the molar value. Where two headings read alike, the source gives them in different places.

Assays:
[1] = molecular target: recombinant human Mcl-1 (residues 171-327) / Bim interaction (Homo sapiens (Human), UniProt Q07820); experiment: biochemical; assay type: binding; details: 0.1 nM Mcl-1(171-327), 0.05 nM biotin-Bim (51-76); read-out: Mcl-1 HTRF IC50
[2] = tested on: human multiple myeloma cell line, OPM-2; experiment: Cell viability assay (OPM-2 10 FBS), CellTiter-Glo; assay type: cell-based
Procedure, shortened: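 3000 cells/well, RPMI 1640 + 10% FBS; serial compound dilutions, 16 h, 37 °C/5% CO2.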

[3] = Homo sapiens, OPM-2, 16 h, read-out: OPM-2 10% FBS IC50 IP, OPM-2 cells, 10% FBS, 16 h incubation
[4] = read-out: OPM-2 10% FBS IC50 IP, OPM-2 cells, 10% FBS, 16 h incubation

Sequence of recombinant human Mcl-1 (residues 171-327) / Bim interaction (Q07820 171-327): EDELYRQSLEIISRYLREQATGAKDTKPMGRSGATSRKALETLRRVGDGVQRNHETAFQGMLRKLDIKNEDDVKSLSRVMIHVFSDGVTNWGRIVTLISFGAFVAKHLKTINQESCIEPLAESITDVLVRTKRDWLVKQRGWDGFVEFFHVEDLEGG

SMILES	pIC50 [1]	pIC50 [2, 3]	pIC50 [2, 4]
COC1CCN(C[C@]2(OC)/C=C/C[C@H](C)[C@@H](C)S(=O)(=O)NC(=O)c3ccc4c(c3)N(C[C@@H]3CC[C@H]32)C[C@@]2(CCCc3cc(Cl)ccc32)CO4)CC1 [Example 117, (1S,3′R,6′R,7′S,8′E,11′S,12′R)-6-chloro-7′-methoxy-7′-((4-methoxy-1-piperidinyl)methyl)-11′,12′-dimethyl-3,4-dihydro-2H,15′H-spiro[naphthalene-1,22′-[20]oxa[13]thia[1,14]diazatetracyclo [14.7.2.0~3,6~.0~19,24~]pentacosa[8,16,18,24]tetraen]-15′-one 13′,13′-dioxide]	9.45	6.45	–
CO[C@@]1(CN2CCC(N(C)C)CC2)/C=C/C[C@H](C)[C@@H](C)S(=O)(=O)NC(=O)c2ccc3c(c2)N(C[C@@H]2CC[C@H]21)C[C@@]1(CCCc2cc(Cl)ccc21)CO3 [Example 118, (1S,3′R,6′R,7′S,8′E,11′S,12′R)-6-chloro-7′-((4-(dimethylamino)-1-piperidinyl)methyl)-7′-methoxy-11′,12′-dimethyl-3,4-dihydro-2H,15′H-spiro[naphthalene-1,22′-[20]oxa[13]thia[1,14]diazatetracyclo [14.7.2.0~3,6~.0~19,24~]pentacosa[8,16,18,24]tetraen]-15′-one 13′,13′-dioxide]	9.67	6.25	–
CCO[C@]1(CN2CCN3CCS(=O)(=O)C[C@@H]3C2)/C=C/C[C@H](C)[C@@H](C)S(=O)(=O)NC(=O)c2ccc3c(c2)N(C[C@@H]2CC[C@H]21)C[C@@]1(CCCc2cc(Cl)ccc21)CO3 [Example 121]	10.08	–	6.92
CCO[C@]1(CN2CCN3CCS(=O)(=O)C[C@@H]3C2)/C=C/C[C@H](C)[C@@H](C)S(=O)(=O)NC(=O)c2ccc3c(c2)N(C[C@@H]2CC[C@H]21)C[C@@]1(CCCc2cc(Cl)ccc21)CO3 [Example 122]	10.06	–	6.86
CCO[C@]1(CN2CCN(CCOC)CC2)/C=C/C[C@H](C)[C@@H](C)S(=O)(=O)NC(=O)c2ccc3c(c2)N(C[C@@H]2CC[C@H]21)C[C@@]1(CCCc2cc(Cl)ccc21)CO3 [Example 123, (1S,3′R,6′R,7′R,8′E,11′S,12′R)-6-chloro-7′-ethoxy-7′-((4-(2-methoxyethyl)-1-piperazinyl)methyl)-11′,12′-dimethyl-3,4-dihydro-2H,15′H-spiro[naphthalene-1,22′-[20]oxa[13]thia[1,14]diazatetracyclo [14.7.2.0~3,6~.0~19,24~]pentacosa[8,16,18,24]tetraen]-15′-one 13′,13′-dioxide]	9.69	6.64	–
C[C@@H]1[C@@H](C)C/C=C/[C@](O)(CN(C)CCO)[C@@H]2CC[C@H]2CN2C[C@@]3(CCCc4cc(Cl)ccc43)COc3ccc(cc32)C(=O)NS1(=O)=O [Example 129]	8.77	5.58	–
C[C@@H]1[C@@H](C)C/C=C/[C@]2(CNCCO2)[C@@H]2CC[C@H]2CN2C[C@@]3(CCCc4cc(Cl)ccc43)COc3ccc(cc32)C(=O)NS1(=O)=O [Example 134, (1S,3′R,6′R,7′R,8′E,11′S,12′R)-6-chloro-11′,12′-dimethyl-3,4-dihydro-2H,15′H-dispiro[naphthalene-1,22′-[20]oxa[13]thia[1,14]diazatetracyclo [14.7.2.0~3,6~.0~19,24~]pentacosa[8,16,18,24]tetraene-7′,2″-[1,4]oxazinan]-15′-one 13′,13′-dioxide]	8.33	5.52	–
C[C@@H]1[C@@H](C)C/C=C/[C@]2(CN(CC3CCOCC3)CCO2)[C@@H]2CC[C@H]2CN2C[C@@]3(CCCc4cc(Cl)ccc43)COc3ccc(cc32)C(=O)NS1(=O)=O [Example 135, (1S,3′R,6′R,7′R,8′E,11′S,12′R)-6-chloro-11′,12′-dimethyl-4″- (tetrahydro-2H-pyran-4-ylmethyl)-3,4-dihydro-2H,15′H-dispiro[naphthalene-1,22′-[20]oxa[13]thia[1,14]diazatetracyclo [14.7.2.0~3,6~.0~19,24~]pentacosa[8,16,18,24]tetraene-7′,2″-[1,4]oxazinan]-15′-one 13′,13′-dioxide]	8.09	< 4.48	–
C[C@@H]1[C@@H](C)C/C=C/[C@]2(CN(Cc3ccncc3)CCO2)[C@@H]2CC[C@H]2CN2C[C@@]3(CCCc4cc(Cl)ccc43)COc3ccc(cc32)C(=O)NS1(=O)=O [Example 136, (1S,3′R,6′R,7′R,8′E,11′S,12′R)-6-chloro-11′,12′-dimethyl-4″- (4-pyridinylmethyl)-3,4-dihydro-2H,15′H-dispiro[naphthalene-1,22′-[20]oxa[13]thia[1,14]diazatetracyclo [14.7.2.0~3,6~.0~19,24~]pentacosa[8,16,18,24]tetraene-7′,2″-[1,4]oxazinan]-15′-one 13′,13′-dioxide]	8.33	5.99	–
C[C@@H]1[C@@H](C)C/C=C/[C@]2(CN(Cc3cccnc3)CCO2)[C@@H]2CC[C@H]2CN2C[C@@]3(CCCc4cc(Cl)ccc43)COc3ccc(cc32)C(=O)NS1(=O)=O [Example 137, (1S,3′R,6′R,7′R,8′E,11′S,12′R)-6-chloro-11′,12′-dimethyl-4″- (3-pyridinylmethyl)-3,4-dihydro-2H,15′H-dispiro[naphthalene-1,22′-[20]oxa[13]thia[1,14]diazatetracyclo [14.7.2.0~3,6~.0~19,24~]pentacosa[8,16,18,24]tetraene-7′,2″-[1,4]oxazinan]-15′-one 13′,13′-dioxide]	8.32	5.94	–
C[C@@H]1[C@@H](C)C/C=C/[C@]2(CN(CC3CCCCC3)CCO2)[C@@H]2CC[C@H]2CN2C[C@@]3(CCCc4cc(Cl)ccc43)COc3ccc(cc32)C(=O)NS1(=O)=O [Example 139, (1S,3′R,6′R,7′R,8′E,11′S,12′R)-6-chloro-4″- (cyclohexylmethyl)-11′,12′-dimethyl-3,4-dihydro-2H,15′H-dispiro[naphthalene-1,22′-[20]oxa[13]thia[1,14]diazatetracyclo [14.7.2.0~3,6~.0~19,24~]pentacosa[8,16,18,24]tetraene-7′,2″-[1,4]oxazinan]-15′-one 13′,13′-dioxide]	7.49	< 4.48	–
CO[C@]1(CN2CCN3C(=O)COC[C@@H]3C2)/C=C/C[C@H](C)[C@@H](C)S(=O)(=O)NC(=O)c2ccc3c(c2)N(C[C@@H]2CC[C@H]21)C[C@@]1(CCCc2cc(Cl)ccc21)CO3 [Example 140, (1S,3′R,6′R,7′R,8′E,11′S,12′R)-6-chloro-7′-methoxy-11′,12′-dimethyl-7′-(((9aS)-4-oxohexahydropyrazino[2,1-c][1,4]oxazin-8(1H)-yl)methyl)-3,4-dihydro-2H,15′H-spiro[naphthalene-1,22′-[20]oxa[13]thia[1,14]diazatetracyclo [14.7.2.0~3,6~.0~19,24~]pentacosa[8,16,18,24]tetraen]-15′-one 13′,13′-dioxide]	10.01	6.90	–
CO[C@@]1(CN2CCN3C(=O)COC[C@@H]3C2)/C=C/C[C@H](C)[C@@H](C)S(=O)(=O)NC(=O)c2ccc3c(c2)N(C[C@@H]2CC[C@H]21)C[C@@]1(CCCc2cc(Cl)ccc21)CO3 [Example 141, (1S,3′R,6′R,7′S,8′E,11′S,12′R)-6-chloro-7′-methoxy-11′,12′-dimethyl-7′-(((9aS)-4-oxohexahydropyrazino[2,1-c][1,4]oxazin-8(1H)-yl)methyl)-3,4-dihydro-2H,15′H-spiro[naphthalene-1,22′-[20]oxa[13]thia[1,14]diazatetracyclo [14.7.2.0~3,6~.0~19,24~]pentacosa[8,16,18,24]tetraen]-15′-one 13′,13′-dioxide]	9.82	6.44	–
CO[C@]1(CN2CCN3C(=O)[C@H](C)OC[C@@H]3C2)/C=C/C[C@H](C)[C@@H](C)S(=O)(=O)NC(=O)c2ccc3c(c2)N(C[C@@H]2CC[C@H]21)C[C@@]1(CCCc2cc(Cl)ccc21)CO3 [Example 142, (1S,3′R,6′R,7′R,8′E,11′S,12′R)-6-chloro-7′-methoxy-11′,12′-dimethyl-7′-(((3S,9aS)-3-methyl-4-oxohexahydropyrazino[2,1-c][1,4]oxazin-8(1H)-yl)methyl)-3,4-dihydro-2H,15′H-spiro[naphthalene-1,22′-[20]oxa[13]thia[1,14]diazatetracyclo [14.7.2.0~3,6~.0~19,24~]pentacosa[8,16,18,24]tetraen]-15′-one 13′,13′-dioxide]	9.80	6.76	–
CO[C@@]1(CN2CCN3C(=O)[C@H](C)OC[C@@H]3C2)/C=C/C[C@H](C)[C@@H](C)S(=O)(=O)NC(=O)c2ccc3c(c2)N(C[C@@H]2CC[C@H]21)C[C@@]1(CCCc2cc(Cl)ccc21)CO3 [Example 143, (1S,3′R,6′R,7′S,8′E,11′S,12′R)-6-chloro-7′-methoxy-11′,12′-dimethyl-7′-(((3S,9aS)-3-methyl-4-oxohexahydropyrazino[2,1-c][1,4]oxazin-8(1H)-yl)methyl)-3,4-dihydro-2H,15′H-spiro[naphthalene-1,22′-[20]oxa[13]thia[1,14]diazatetracyclo [14.7.2.0~3,6~.0~19,24~]pentacosa[8,16,18,24]tetraen]-15′-one 13′,13′-dioxide]	9.36	6.66	–
CO[C@]1(CN2CCN3C(=O)[C@@H](C)OC[C@@H]3C2)/C=C/C[C@H](C)[C@@H](C)S(=O)(=O)NC(=O)c2ccc3c(c2)N(C[C@@H]2CC[C@H]21)C[C@@]1(CCCc2cc(Cl)ccc21)CO3 [Example 144, (1S,3′R,6′R,7′R,8′E,11′S,12′R)-6-chloro-7′-methoxy-11′,12′-dimethyl-7′-(((3R,9aS)-3-methyl-4-oxohexahydropyrazino[2,1-c][1,4]oxazin-8(1H)-yl)methyl)-3,4-dihydro-2H,15′H-spiro[naphthalene-1,22′-[20]oxa[13]thia[1,14]diazatetracyclo [14.7.2.0~3,6~.0~19,24~]pentacosa[8,16,18,24]tetraen]-15′-one 13′,13′-dioxide]	9.57	6.79	–
